# Values of other authors as cited in patent US7993683B2, “Compositions for the treatment of chronic degenerative inflammatory conditions” (Indena S.p.A., priority 2006, dated 2011).
# What was measured:
# [1] = test system: pro-inflammatory cytokines
# [2] = test system: TNF-induced enhancement of endothelial monocyte adesion; conditions: added to endothelial cell culture together with tumour necrosis factor (TNF)
compound,measurement,setting,value
C=C1CC[C@@H]2[C@](C)(CO)[C@H](O)CC[C@@]2(C)[C@@H]1C/C=C1/C(=O)OC[C@H]1O [andrographolide],synthesis of pro-inflammatory cytokines,[1],inhibits
same,TNF-induced enhancement of endothelial monocyte adesion,[2],concentration depended reduction
